Assay results from patent US4703036A, “Peptide-aldehydes, process for the preparation thereof and pharmaceutical compositions containing the same” (Richter Gedeon Vegyeszeti Gyar RT, priority 1984, dated 1987).
Non-standard residues stand in square brackets, D forms with d. Residues, ends and D or L forms follow the SMILES beside them. dNMeaIle = CC[C@H](C)[C@@H](NC)C(=O)O

How the values were obtained:
[1] = target: T1, US Standard Human Thrombin (Homo sapiens, UniProt P00734); test: Antithrombin activity: clotting time in the thrombin-fibrinogen system; format: biochemical; settings: for Initial activity I80 (zero day): peptide concentration in the reaction mixture inducing a fivefold prolongation of clotting time compared to the control (15 s)
T1 construct: US Standard Human Thrombin; purchased NIH, Bethesda, Md., USA
Method: Antithrombin activities were assayed in a system containing the following components:
(§1) 0.2 ml 0.5 percent bovine fibrinogen in a 0.9 percent solution of sodium chloride,
0.1 ml tris(hydroxymethyl)-amino-methane-hydrochloride-hydrochloric acid buffer (pH=7.2) containing the peptide solution, and
0.1 ml US Standard Human Thrombin (NIH, Bethesda, Md., USA), 10 unit/ml solution.
The clotting time of the peptide-free system is 15 s, measured in the "Schnither-Gross-Coagulometer". The initial activity of the tripeptide-aldehyde sulfates was arbitrarily set up as the mole concentration inducing the fivefold prolongation of clotting time in the system compared to the control (I80 value). The activity of the peptides in the solutions, assayed on the 1st, 3rd and 5th day, was expressed as a percentage of the initial activity (zero day).

[2] = target: T1, US Standard Human Thrombin; test: Change in the antithrombin activity of aqueous solutions of tripeptide-aldehyde sulfates on storage; format: physicochemical; settings: aqueous solution 10 mg/ml; for loss of initial antithrombin activity during the observation period: pH 6.0, 40° C., 5 days; for Activity (%) Day 1 / Activity (%) Day 2 / Activity (%) Day 3: percentage of initial activity, pH = 6.0, stored at 40° C.
Method: The transformations proceeding in the solutions were monitored by chromatography and by measuring antithrombin activity. Antithrombin activities were assayed in a system containing the following components: […] 0.1 ml US Standard Human Thrombin (NIH, Bethesda, Md., USA), 10 unit/ml solution. The clotting time of the peptide-free system is 15 s, measured in the "[…]-Gross-Coagulometer". The initial activity of the tripeptide-aldehyde sulfates was arbitrarily set up as the mole concentration inducing the fivefold prolongation of clotting time in the system compared to the control ([…] value).

[3] = Conversion to the tricyclic compound in aqueous solution, monitored by chromatography; format: physicochemical; settings: for irreversible conversion to the tricyclic compound: aqueous solution 10 mg/ml, pH=6.0, 40° C., 5 days, thin-layer chromatography
Method: The structure of this compound [1,2,4,5,6,6a-hexahydro-1-benzyl-2-oxo-8-(4'-guanidino)-butyl-pyrrolo[1,2- a]imidazolo[2,1-c]pyrazine] was confirmed by mass spectrometry and NMR spectroscopy. […] 817], they are less suitable for anticoagulant therapy.
During stability testing aqueous solutions of D-phenylalanyl-L-prolyl-L-arginine-aldehyde sulfate as well as of the corresponding N-alkyl derivatives with a concentration of 10 mg/ml (pH=6.0) were stored at 40° C. for 5 days. The transformations proceeding in the solutions were monitored by chromatography and by measuring antithrombin activity.

plasmin [4] = target: T2, plasmin (Homo sapiens, UniProt P00747); test: Effect on the plasmin-fibrin reaction: lysis time of fibrin clot; format: biochemical; design: key: **: No measurable lysis time due to clot of rather loose structure; settings: peptide-free system 10 minutes
T2 construct: 0.1 U plasmin dissolved in buffer solution (KABI, Stockholm, Sweden); purchased KABI, Stockholm, Sweden
T2 sequence (P00747 581-810 limits assumed): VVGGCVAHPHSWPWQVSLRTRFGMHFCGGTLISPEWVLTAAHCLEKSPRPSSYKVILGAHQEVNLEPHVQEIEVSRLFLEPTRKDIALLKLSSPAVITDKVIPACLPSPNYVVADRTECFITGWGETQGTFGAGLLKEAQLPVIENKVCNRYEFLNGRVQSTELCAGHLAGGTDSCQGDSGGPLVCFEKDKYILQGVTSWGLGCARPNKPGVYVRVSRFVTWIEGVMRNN
T2 sequence (P00747 97-580 partner limits assumed): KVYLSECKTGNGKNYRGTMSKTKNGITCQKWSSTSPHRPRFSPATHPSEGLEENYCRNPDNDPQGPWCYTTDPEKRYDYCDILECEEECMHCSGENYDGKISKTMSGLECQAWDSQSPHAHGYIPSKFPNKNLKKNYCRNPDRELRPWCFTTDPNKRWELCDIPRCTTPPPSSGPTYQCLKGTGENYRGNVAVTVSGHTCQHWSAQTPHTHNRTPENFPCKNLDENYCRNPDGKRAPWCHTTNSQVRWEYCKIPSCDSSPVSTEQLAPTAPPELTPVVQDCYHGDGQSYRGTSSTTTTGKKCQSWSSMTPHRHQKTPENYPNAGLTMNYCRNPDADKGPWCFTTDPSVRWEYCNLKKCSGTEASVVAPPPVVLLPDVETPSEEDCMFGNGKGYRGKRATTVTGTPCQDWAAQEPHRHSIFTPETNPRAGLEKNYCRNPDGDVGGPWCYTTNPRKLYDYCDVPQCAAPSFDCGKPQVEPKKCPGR
Method: as §1
0.1 ml tris(hydroxymethyl)-amino-methane hydrochloride-hydrochloric acid buffer (pH=7.2), containing the peptide,
0.1 ml 0.1 U plasmin dissolved in buffer solution (KABI, Stockholm, Sweden), and
0.1 ml US Standard Human Thrombin (NIH, Bethesda, Md., USA) 10 U/ml solution.
The lysis time of the fibrin gel formed in the peptide-free system is 10 minutes. D-Phenylalanyl-L-prolyl-L-arginine-aldehyde sulfate and the above-mentioned t-butyloxycarbonyl-D-phenylalanyl-L-prolyl-L-arginine-aldehyde hemisulfate were used as reference substances.

male New Zealand rabbits = test: In vivo anticoagulant effect: whole blood clotting time and plasma thrombin time; design: species or system rabbit; settings: lowest dose required to attain therapeutic effect; for Lowest effective dose iv: intravenous infusion for 3 hours; for Lowest effective dose po: oral administration
Method: The peptides, dissolved in isotonic saline solution, were administered orally or intravenously to male New Zealand rabbits weighing 2 to 3 kg. At intravenous application infusions of 0.5 to 2.0 mg/kg/h were given at a rate of 6 ml/h for 3 hours. At oral administration 20 to 30 mg/kg doses of the peptides were given in volumes of 2 ml. After application blood samples were taken in 30 minute periods from the ear vein of the rabbits and the clotting time of whole blood was assayed in a Thromboelastograph [H. Harter: Zeitschrift fur klinische Medizin 153, 423 (1955)], simultaneously the plasma thrombin time was measured, too [R. T. S. Jim: J. Lab. Clin. Med. 50, 45 (1957)]. The lowest doses required to attain therapeutic effect (M. Verstraete and R. Verwilghen in Drug Treatment, 2nd ed., Ed.: G. S. Avery, Churchill Livingstone, Edinburgh-London, 1980, p. 919) were presented in Table 3, D-phenylalanyl-L-prolyl-L-arginine-aldehyde sulfate served as reference substance.

[5] = target: T1, US Standard Human Thrombin; settings: cool solution (5° C.), prolonged period; Belgian patent specification No. 891,708; cited from earlier work
[6] = Conversion to the tricyclic compound in aqueous solution, monitored by chromatography; format: physicochemical
[7] = target: T1, US Standard Human Thrombin; settings: literature statement; cited from earlier work
plasmin [8] = target: T2, plasmin; settings: literature statement; cited from earlier work

Row | Compound | Initial activity I80 (zero day) [1] | loss of initial antithrombin activity during the observation period [2] | Activity (%) Day 1 [2] | Activity (%) Day 2 [2] | Activity (%) Day 3 [2] | Lysis time of fibrin clot (plasmin [4]; peptide content 0.18 μM) | Lysis time of fibrin clot (plasmin [4]; peptide content 0.36 μM) | Lysis time of fibrin clot (plasmin [4]; peptide content 0.72 μM) | Lowest effective dose iv (male New Zealand rabbits) | Lowest effective dose po (male New Zealand rabbits) | irreversible conversion to the tricyclic compound ([3]; sulfate) | also measured
1 | 1,2,4,5,6,6a-hexahydro-1-benzyl-2-oxo-8-(4'-guanidino)-butyl-pyrrolo[1,2- a]imidazolo[2,1-c]pyrazine [tricyclic compound] |  |  |  |  |  |  |  |  |  |  |  | enzyme inhibitory activity ([1]; conversion product, method not described): devoid of enzyme inhibitory activity
2 | N=C(N)NCCC[C@@H](C=O)NC(=O)[C@@H]1CCCN1C(=O)[C@H](N)Cc1ccccc1.O=S(=O)(O)O [D-Phenylalanyl-L-prolyl-L-arginine-aldehyde sulfate, reference compound] | 0.25 µM | more than 50% | 100% | 50% | 40% | 10 min | ** | no clot formed | 0.5 mg/kg/h | 20 mg/kg |  | irreversible conversion to the tricyclic compound [3]: gradually reduced; stability: retention of initial activity in cool solution [5]: retaining its initial activity; time to practically complete transformation into the tricyclic compound at 37° to 40° C. ([6]; 37° to 40° C.): 10 to 14 days; transformation into the tricyclic compound at 80° to 100° C. ([6]; 80° to 100° C.): within hours
3 | CC(=O)O.N=C(N)NCCC[C@@H](C=O)NC(=O)[C@@H]1CCCN1C(=O)[C@H](N)Cc1ccccc1 [D-phenylalanyl-L-prolyl-L-arginine-aldehyde acetate, reference compound] |  |  |  |  |  |  |  |  |  |  |  | transformation into the corresponding tricyclic compound ([3]; conditions not stated): especially highly susceptible
4 | CN(C)[C@H](Cc1ccccc1)C(=O)N1CCC[C@H]1C(=O)N[C@H](C=O)CCCNC(=N)N.O=S(=O)(O)O [N,N-Dimethyl-D-phenylalanyl-L-prolyl-L-arginine-aldehyde sulfate] |  |  |  |  |  |  |  |  |  | 30 mg/kg |  | irreversible conversion to the tricyclic compound [3]: no such conversion was detectable
5 | CCN[C@H](Cc1ccccc1)C(=O)N1CCC[C@H]1C(=O)N[C@H](C=O)CCCNC(=N)N.O=S(=O)(O)O [N-Ethyl-D-phenylalanyl-L-prolyl-L-arginine-aldehyde sulfate] | 0.21 µM | 15 to 20% | 100% | 100% | 85% |  |  |  | 0.5 mg/kg/h | 20 mg/kg | fail to be irreversibly converted | irreversible conversion to the tricyclic compound ([3]; listed as N-ethyl derivative, sulfate): no such conversion was detectable
6 | CC(C)CN[C@H](Cc1ccccc1)C(=O)N1CCC[C@H]1C(=O)N[C@H](C=O)CCCNC(=N)N.O=S(=O)(O)O [N-Isobutyl-D-phenylalanyl-L-prolyl-L-arginine-aldehyde sulfate] | 0.31 µM | 15 to 20% | 100% | 85% | 80% |  |  |  |  | 20 mg/kg | fail to be irreversibly converted | irreversible conversion to the tricyclic compound ([3]; listed as N-isobutyl derivative, sulfate): no such conversion was detectable
7 | CC[C@H](C)[C@@H](NC)C(=O)N1CCC[C@H]1C(=O)N[C@H](C=O)CCCNC(=N)N.O=S(=O)(O)O [N-Methyl-D-alloisoleucyl-L-prolyl-L-arginine-aldehyde sulfate] (H-[dNMeaIle]-Pro-Arg-aldehyde) |  |  |  |  |  |  |  |  | 1.0 mg/kg/h | 30 mg/kg |  | 
8 | CN[C@H](Cc1ccccc1)C(=O)N1CCC[C@H]1C(=O)N[C@@H](C=O)CCCNC(=N)N.O=S(=O)(O)O [N-Methyl-D-phenylalanyl-L-prolyl-D-arginine-aldehyde sulfate] | 0.25 µM |  | 100% | 100% | 100% |  |  |  |  |  |  | 
9 | CN[C@H](Cc1ccccc1)C(=O)N1CCC[C@H]1C(=O)N[C@H](C=O)CCCNC(=N)N.O=S(=O)(O)O [N-Methyl-D-phenylalanyl-L-prolyl-L-arginine-aldehyde sulfate] |  | retained its initial potency |  |  |  | 10 min | ** | no clot formed | 0.5 mg/kg/h | 20 mg/kg | fail to be irreversibly converted | irreversible conversion to the tricyclic compound ([3]; listed as N-methyl derivative, sulfate): no such conversion was detectable
10 | t-butyloxycarbonyl-D-phenylalanyl-L-prolyl-L-arginine-aldehyde hemisulfate |  |  |  |  |  | 10 min | 20 min | 40 min |  |  |  | inhibition of the thrombin-fibrinogen reaction [7]: inhibit; effect on the plasmin-fibrin reaction (plasmin [8]): inhibit
